A value given as a limit tells only on which side of the number the result lay.

One assay concerns the target human RIPK3 (Homo sapiens (Human), UniProt Q9Y572). Nature of the assay: KINOMEscan binding assay, human RIPK3. As to conditions: equilibrium dissociation constant. A digest of the protocol:
(§1)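 Active-site competition binding: DNA-tagged kinase (T7 phage fusion from BL21-derived E. coli lysate, or HEK-293-expressed) captured on immobilized-ligand beads, with bound kinase in the eluate quantified by qPCR. Compounds ran as 11-point 3-fold dilutions, 1% DMSO, top 30,000 nM for most. Kd came from a Hill fit (slope −1).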

Another assay concerns U937 cells. Nature of the assay: Counter screen: U937 cell viability without TSQ cocktail (off-target effect). The following applies: Homo sapiens, U-937, compound without TSQ cocktail, read-out: Off-target effect (IC50 cell-based assay). Details: species or system human. The method, boiled down:
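Off-target viability counter screen: compounds titrated 36 μM down 1:3 over 10 points (0.3% DMSO) on 20,000 U937 cells/well, no TNF/Smac mimetic/Q-VD-OPh added, 48 h incubation. ATP-based CellTiter-Glo luminescence, four-parameter logistic IC50.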

In assay [1] the test system is U937 human histiocytic leukemia cell line. Nature of the assay: Inhibition of TSQ induced necroptosis in U937 cells (CellTitre-Glo). The following applies: Homo sapiens, U-937, TSQ cocktail (TNF, Smac mimetic, Q-VD-OPh), 48 hours, read-out: Inhibition of TSQ-induced necroptosis (IC50 cell-based assay). A digest of the protocol:
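Necroptosis was induced with TNF-Fc (100 ng/ml), Smac mimetic (500 nM) and Q-VD-OPh (10 μM) in 20000 U937 cells/well exposed to a 10-point, 3-fold compound series (top 36 μM, 0.3% DMSO). ATP luminescence read after 48 h; 4-parameter fit gave IC50. Parallel TSQ-free wells assessed compound toxicity.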

Another assay concerns the target mouse MLKL (full length) (Mus musculus (Mouse), UniProt Q9D2Y4). Nature of the assay: KINOMEscan binding assay, mouse MLKL (full length). The following applies: equilibrium dissociation constant. A digest of the protocol:
as §1

The next assay deals with human RIPK1 (Homo sapiens (Human), UniProt Q13546). Nature of the assay: KINOMEscan binding assay, human RIPK1. As to conditions: equilibrium dissociation constant. A digest of the protocol:
as §1

human RIPK3, sequence (Q9Y572 whole entry, the tested form may be a part): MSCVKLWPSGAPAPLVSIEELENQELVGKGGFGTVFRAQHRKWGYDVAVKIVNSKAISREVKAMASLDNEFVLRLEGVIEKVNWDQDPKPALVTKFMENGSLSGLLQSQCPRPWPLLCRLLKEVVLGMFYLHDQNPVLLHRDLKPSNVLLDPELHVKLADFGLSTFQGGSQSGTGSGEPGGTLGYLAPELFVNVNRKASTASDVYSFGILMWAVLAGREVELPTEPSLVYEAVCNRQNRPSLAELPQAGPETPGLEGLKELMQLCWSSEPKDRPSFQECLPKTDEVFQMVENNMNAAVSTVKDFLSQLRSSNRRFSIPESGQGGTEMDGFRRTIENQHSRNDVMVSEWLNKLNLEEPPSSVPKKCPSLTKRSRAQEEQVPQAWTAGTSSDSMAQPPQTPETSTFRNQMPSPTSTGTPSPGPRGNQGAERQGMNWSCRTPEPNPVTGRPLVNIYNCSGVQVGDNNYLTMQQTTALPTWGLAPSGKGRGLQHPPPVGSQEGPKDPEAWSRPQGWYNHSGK
human RIPK1, sequence (Q13546 whole entry): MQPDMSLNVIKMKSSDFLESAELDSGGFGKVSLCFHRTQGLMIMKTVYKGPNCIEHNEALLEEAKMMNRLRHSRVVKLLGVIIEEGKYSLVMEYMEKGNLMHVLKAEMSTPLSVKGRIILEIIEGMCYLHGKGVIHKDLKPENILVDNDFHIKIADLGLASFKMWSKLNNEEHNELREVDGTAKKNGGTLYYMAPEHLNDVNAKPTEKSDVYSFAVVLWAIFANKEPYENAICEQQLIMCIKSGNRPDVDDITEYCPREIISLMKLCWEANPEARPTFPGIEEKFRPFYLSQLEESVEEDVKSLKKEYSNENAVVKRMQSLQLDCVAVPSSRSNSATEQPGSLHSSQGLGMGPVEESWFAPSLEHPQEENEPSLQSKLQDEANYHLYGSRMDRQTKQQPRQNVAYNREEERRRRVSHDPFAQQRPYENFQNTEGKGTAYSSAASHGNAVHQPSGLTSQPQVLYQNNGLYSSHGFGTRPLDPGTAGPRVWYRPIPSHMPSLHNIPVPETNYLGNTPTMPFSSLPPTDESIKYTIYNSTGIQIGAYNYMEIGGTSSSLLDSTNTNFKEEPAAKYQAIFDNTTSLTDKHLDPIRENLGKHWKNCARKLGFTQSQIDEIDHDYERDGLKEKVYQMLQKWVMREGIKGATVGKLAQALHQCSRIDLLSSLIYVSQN
mouse MLKL (full length), sequence (Q9D2Y4 whole entry): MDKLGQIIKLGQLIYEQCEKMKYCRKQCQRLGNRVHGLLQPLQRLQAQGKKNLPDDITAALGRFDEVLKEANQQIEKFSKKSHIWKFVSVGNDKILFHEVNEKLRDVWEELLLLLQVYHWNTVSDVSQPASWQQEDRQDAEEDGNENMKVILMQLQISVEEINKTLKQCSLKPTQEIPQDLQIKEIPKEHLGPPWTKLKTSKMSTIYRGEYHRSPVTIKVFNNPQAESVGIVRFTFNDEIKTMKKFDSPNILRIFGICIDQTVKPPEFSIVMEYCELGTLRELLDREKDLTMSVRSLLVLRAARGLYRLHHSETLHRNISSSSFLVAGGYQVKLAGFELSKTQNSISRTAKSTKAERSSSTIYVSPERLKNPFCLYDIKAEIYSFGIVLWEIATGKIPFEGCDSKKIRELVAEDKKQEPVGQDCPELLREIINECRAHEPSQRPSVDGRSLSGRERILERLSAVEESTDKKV

Consider `Cn1nc(-c2ccc(NS(=O)(=O)C(F)F)c(OCc3ccc(F)cc3)c2)c2c(N)ncc(-c3cnn(C4CCOCC4)c3)c21` [Compound 13, N-(4-(4-amino-1-methyl-7-(1-(tetrahydro-2H-pyran-4-yl)-1H-pyrazol-4-yl)-1H-pyrazolo[4,3-c]pyridin-3-yl)-2-((4-fluorobenzyl)oxy)phenyl)-1,1-difluoromethanesulfonamide], for which the figures for the Kd at human RIPK3, on mouse MLKL (full length) and at human RIPK1 were above 10 µM, below 0.001 µM and above 10 µM, respectively. For the same compound, the figures for the IC50 (with U937 cells; in assay [1]) were above 10 µM and 0.01 to 1 µM, respectively.

`C[C@H](Oc1cc(-c2nn(C)c3c(-c4cnn(C5CCOCC5)c4)cnc(N)c23)ccc1NS(=O)(=O)C(F)F)c1ccc(F)cc1` [Compound 19, (S)-N-(4-(4-amino-1-methyl-7-(1-(tetrahydro-2H-pyran-4-yl)-1H-pyrazol-4-yl)-1H-pyrazolo[4,3-c]pyridin-3-yl)-2-(1-(4-fluorophenyl)ethoxy)phenyl)-1,1-difluoromethanesulfonamide]: the Kd is above 10 µM on human RIPK3, below 0.001 µM on mouse MLKL (full length) and above 10 µM on human RIPK1. The IC50 in the assay on U937 cells was above 10 µM; in assay [1] it was below 0.01 µM.

For the compound `C[C@H](Oc1cc(-c2nn(C)c3c(-c4cnn(C5C[C@H]6CNC[C@H]6C5)c4)cnc(N)c23)ccc1NS(=O)(=O)C(F)F)c1ccc(F)cc1` (stereo partly drawn) [Compound 163, N-(4-(4-amino-1-methyl-7-(1-((3aR,6aS)-octahydrocyclopenta[c]pyrrol-5-yl)-1H-pyrazol-4-yl)-1H-pyrazolo[4,3-c]pyridin-3-yl)-2-((S)-1-(4-fluorophenyl)ethoxy)phenyl)-1,1-difluoromethanesulfonamide], the Kd on human RIPK3 and at human RIPK1 was above 10 µM each time. The IC50 with U937 cells is above 10 µM; in assay [1], 0.01 to 1 µM.

For `C[C@H](Oc1cc(-c2nn(C)c3c(-c4cnn(C5C[C@@H]6CN(C)C[C@@H]6C5)c4)cnc(N)c23)ccc1NS(=O)(=O)C(F)F)c1ccc(F)cc1` (stereo partly drawn) [Compound 164, N-(4-(4-amino-1-methyl-7-(1-((3aR,6aS)-2-methyloctahydrocyclopenta[c]pyrrol-5-yl)-1H-pyrazol-4-yl)-1H-pyrazolo[4,3-c]pyridin-3-yl)-2-((S)-1-(4-fluorophenyl)ethoxy)phenyl)-1,1-difluoromethanesulfonamide], the Kd on human RIPK3 and on human RIPK1 was above 10 µM each time. In addition, the IC50 is above 10 µM in the assay with U937 cells and below 0.01 µM in assay [1].

`C[C@H](Oc1cc(-c2nn(C)c3c(-c4ccc5c(cnn5C)c4)cnc(N)c23)ccc1NS(=O)(=O)C(F)F)c1ccc(F)cc1` [Compound 166, (S)-N-(4-(4-amino-1-methyl-7-(1-methyl-1H-indazol-5-yl)-1H-pyrazolo[4,3-c]pyridin-3-yl)-2-(1-(4-fluorophenyl)ethoxy)phenyl)-1,1-difluoromethanesulfonamide]: the dissociation constant (Kd) on human RIPK3 and on human RIPK1 was above 10 µM in each case. Besides, the figures for the IC50 (with U937 cells; in assay [1]) were above 10 µM and 0.01 to 1 µM, respectively.

Take `C[C@H](Oc1cc(-c2nn(C)c3c(-c4cnn(C5CCN(CC(F)(F)F)C(C)(C)C5)c4)cnc(N)c23)ccc1NS(=O)(=O)C(F)F)c1ccc(F)cc1` (stereo partly drawn) [Compound 167, N-(4-(4-amino-7-(1-(2,2-dimethyl-1-(2,2,2-trifluoroethyl)piperidin-4-yl)-1H-pyrazol-4-yl)-1-methyl-1H-pyrazolo[4,3-c]pyridin-3-yl)-2-((S)-1-(4-fluorophenyl)ethoxy)phenyl)-1,1-difluoromethanesulfonamide]: the dissociation constant (Kd) on human RIPK3 and at human RIPK1 was above 10 µM in each case. Moreover, the IC50 in the assay with U937 cells lay within 1 to 10 µM; in assay [1], 0.01 to 1 µM.

On to `CC1CN(C)CC(C)C1n1cc(-c2cnc(N)c3c(-c4ccc(NS(=O)(=O)C(F)F)c(O[C@@H](C)c5ccc(F)cc5)c4)nn(C)c23)cn1` (stereo partly drawn) [Compound 172, N-(4-{4-amino-1-methyl-7-[1-(1,3,5-trimethylpiperidin-4-yl)-1H-pyrazol-4-yl]-1H-pyrazolo[4,3-c]pyridin-3-yl}-2-[(1S)-1-(4-fluorophenyl)ethoxy]phenyl)-1,1-difluoromethanesulfonamide], for which the dissociation constant Kd at human RIPK3 and on human RIPK1 was above 10 µM each time. Further, the figures for the IC50 (in the assay with U937 cells; in assay [1]) were above 10 µM and 0.01 to 1 µM, respectively.

The record behind these values is patent publication US20250059188A1, “ARYLSULPHONAMIDE COMPOUNDS” (Anaxis Pharma Pty Ltd, priority 2021, published 2025).
